Earlier results, collected in US7223414B1, “Silica-calcium phosphate bioactive composite for improved synthetic graft resorbability and tissue regeneration” (priority 2002, dated 2007).
Where a name gives a salt, the structure may show the parent alone.

System: Staphylococcus aureus

CN[C@H](CC(C)C)C(=O)N[C@H]1C(=O)N[C@@H](CC(N)=O)C(=O)N[C@H]2C(=O)N[C@H]3C(=O)N[C@H](C(=O)N[C@H](C(=O)O)c4cc(O)cc(O)c4-c4cc3ccc4O)[C@H](O)c3ccc(c(Cl)c3)Oc3cc2cc(c3O[C@@H]2O[C@H](CO)[C@@H](O)[C@H](O)[C@H]2O[C@H]2C[C@](C)(N)[C@H](O)[C@H](C)O2)Oc2ccc(cc2Cl)[C@H]1O [vancomycin hydrochloride, Vancomycin hydrochloride]
breakpoint sensitivity: 5 mg/L | minimum bactericidal concentrations: 2.34 µg/mL | minimum inhibitory concentration: 1.18 µg/mL
